In EP4603105A1, “PHARMACEUTICAL COMPOSITION CONTAINING CYCLIC COMPOUND HAVING SELECTIVE KRAS INHIBITORY EFFECT AGAINST HRAS AND NRAS” (CHUGAI SEIYAKU KABUSHIKI KAISHA, priority 2022, dated 2024):
Where a SMILES comes first, the peptide text is derived from it. Bridges are numbered along the chain shown (N, C = ends). [ ]: non-standard residue; d: D form. The star is where a group is joined. hPhe(3,5-F2-4-CF3) = N[C@@H](CCc1cc(F)c(C(F)(F)F)c(F)c1)C(=O)O; NPrPhe(4-CF3) = CCCN[C@@H](Cc1ccc(C(F)(F)F)cc1)C(=O)O; NMeAbu(4,4,4-F3) = CN[C@@H](CC(F)(F)F)C(=O)O; NMeD = CN[C@@H](CC(=O)O)C(=O)O; NMeL = CN[C@@H](CC(C)C)C(=O)O; Morpholide = C1CN(*)CCO1; Ac5c = NC1(C(=O)O)CCCC1; Aze = O=C(O)[C@@H]1CCN1; Sar = CNCC(=O)O

Experiments:
[1] = target: GDP-bound NRAS wild-type protein (Homo sapiens, UniProt P01111); test: Binding to NRAS by surface plasmon resonance (SPR), KD and KD ratio to KRAS
In short: (§1)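 SPR, 30°C: Avi-biotin RAS·GDP captured via Biotin CAPture (~100–300 RU); running buffer HBS pH 7.4, 1 mM DTT, 10 mM MgCl2, 0.01% Tween 20, 10 µM GDP, 4% DMSO. Single-cycle kinetics, 100 µL/min, 75 s injections; 1:1 model → KD.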

HRAS wild-type protein = HRAS wild-type protein (Homo sapiens, UniProt P01112); test: Binding to HRAS by surface plasmon resonance (SPR), KD and KD ratio to KRAS
In short: as §1

[2] = test system: human lung cancer strain NCI-H441; format: cell-based
In short: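 Proliferation was scored by […] measured after the reagent was added to cultures kept at 37°C in 5% carbon dioxide.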

[3] = ratio of the KD value with respect to GDP-bound NRAS wild-type protein to the KD value with respect to KRAS
[4] = ratio of the KD value with respect to HRAS wild-type protein to the KD value with respect to KRAS
[5] = ratio of KD for GDP-bound NRAS wild-type protein to KD for KRAS
[6] = ratio of KD for HRAS wild-type protein to KD for KRAS

Sequence of GDP-bound NRAS wild-type protein (P01111 whole entry): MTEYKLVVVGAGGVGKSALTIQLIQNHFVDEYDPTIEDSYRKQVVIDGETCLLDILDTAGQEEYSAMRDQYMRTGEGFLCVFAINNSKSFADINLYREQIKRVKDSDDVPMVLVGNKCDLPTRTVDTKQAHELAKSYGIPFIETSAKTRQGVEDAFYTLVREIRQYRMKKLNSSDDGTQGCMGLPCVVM
Sequence of HRAS wild-type protein (P01112 whole entry): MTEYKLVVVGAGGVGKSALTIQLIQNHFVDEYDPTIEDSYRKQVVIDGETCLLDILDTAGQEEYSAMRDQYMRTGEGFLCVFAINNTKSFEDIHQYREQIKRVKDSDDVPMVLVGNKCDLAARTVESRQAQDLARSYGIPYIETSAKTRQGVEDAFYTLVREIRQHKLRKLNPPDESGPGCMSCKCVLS

IC50 [2] [nM]	Structure (SMILES)	NRAS /KRAS [1, 3]	HRAS /KRAS (HRAS wild-type protein; [4])	NRAS /KRAS [1, 5]	HRAS /KRAS (HRAS wild-type protein; [6])	NRAS /KRAS ([1]; ratio of KD value for GDP-bound NRAS wild-type protein to KD value for KRAS (SPR))	HRAS /KRAS (HRAS wild-type protein; ratio of KD value for HRAS wild-type protein to KD value for KRAS (SPR))
14.8	CCO[C@@H]1C[C@H]2C(=O)NC3(CC(C)(C)C3)C(=O)N(C)[C@@H](C3CCCC3)C(=O)N(C)[C@H](C(=O)N3CCCC3)CC(=O)N(C)[C@@H](CC)C(=O)N[C@@H]([C@@H](C)CC)C(=O)N(C)CC(=O)N(C)[C@H]3C/C=C\CCN(C3=O)[C@@H](Cc3ccc(C(F)(F)F)cc3)C(=O)N(C)CC(=O)N[C@@H](CCc3cc(F)c(C(F)(F)F)c(F)c3)C(=O)N2C1 [PP1944]	A (a compound having 10 or more and less than 20 is denoted as A)	A (a compound having 10 or more and less than 20 is denoted as A)				
4.3	CC[C@H](C)[C@@H]1NC(=O)[C@@H]2CCCCc3ccc(cc3)C[C@@H](C(=O)N(C)CC(=O)N[C@@H](CCc3ccc(C(F)(F)F)c(OC)c3)C(=O)N3C[C@H](OC4CCCC4)C[C@H]3C(=O)NC3(CC(C)(C)C3)C(=O)N(C)[C@@H](C3CCCC3)C(=O)N(C)[C@H](C(=O)N(C)C)CC(=O)N2C)N2CC/C=C\C[C@@H](C2=O)N(C)C(=O)CN(C)C1=O [PP3080]			A (a compound having 10 or more and less than 20 is denoted as A)	B (a compound having 3 or more and less than 10 is denoted as B)		
112	CCO[C@@H]1C[C@H]2C(=O)NC3(CCCC3)C(=O)N(C)[C@@H](C3CCCC3)C(=O)N(C)[C@H](C(=O)N3CCOCC3)CC(=O)N(C)[C@@H](COC)C(=O)N[C@@H]([C@@H](C)CC)C(=O)N(C)CC(=O)N(C)[C@H]3CCCCCN(C3=O)[C@@H](Cc3ccc(C(F)(F)F)cc3)C(=O)N(C)CC(=O)N[C@@H](CCc3cc(F)c(C(F)(F)F)c(F)c3)C(=O)N2C1 [PP0841]			B (a compound having 3 or more and less than 10 is denoted as B)	B (a compound having 3 or more and less than 10 is denoted as B)		
15	CCO[C@@H]1C[C@H]2C(=O)NC3(CCC3)C(=O)N(C)[C@@H](C3CCCC3)C(=O)N(C)[C@H](C(=O)N(C)C)CC(=O)N(C)[C@@H](CC3CCCCC3)C(=O)N[C@@H]([C@@H](C)CC)C(=O)N(C)CC(=O)N(C)[C@H]3C/C=C\CCN(C3=O)[C@@H](Cc3ccc(C(F)(F)F)cc3)C(=O)N(C)CC(=O)N[C@@H](CCc3cc(F)c(C(F)(F)F)c(F)c3)C(=O)N2C1 [PP1125]			A (a compound having 10 or more and less than 20 is denoted as A)	A (a compound having 10 or more and less than 20 is denoted as A)		
52.5	CCCN1C(=O)[C@@H]2CCN2C(=O)CN(C)C(=O)[C@H]([C@@H](C)CC)NC(=O)[C@H](CC(C)C)N(C)C(=O)C[C@@H](C(=O)N2CCOCC2)N(C)C(=O)[C@H](CC(F)(F)F)N(C)C(=O)C2(CCCC2)NC(=O)[C@@H]2CCCN2C(=O)[C@H](CCc2cc(F)c(C(F)(F)F)c(F)c2)NC(=O)CN(C)C(=O)[C@@H]1Cc1ccc(C(F)(F)F)cc1 [PP0803] ([NMeL]I[Sar][Aze][NPrPhe(4-CF3)][Sar][hPhe(3,5-F2-4-CF3)]P[Ac5c][NMeAbu(4,4,4-F3)][NMeD]-Morpholide; lactam N-11)			C (A compound having a KD ratio of 0.1 or more and less than 3 is denoted as C)	B (a compound having 3 or more and less than 10 is denoted as B)		
24.3	CCO[C@@H]1C[C@H]2C(=O)NC3(CCCC3)C(=O)N(C)[C@@H](C3CCCC3)C(=O)N(C)[C@H](C(=O)N3CCOCC3)CC(=O)N(C)[C@@H](CC)C(=O)N[C@@H]([C@@H](C)CC)C(=O)N(C)CC(=O)N(C)[C@H]3C[C@@H](C)CCN(C3=O)[C@@H](Cc3ccc(C(F)(F)F)cc3)C(=O)N(C)CC(=O)N[C@@H](CCc3cc(F)c(C(F)(F)F)c(F)c3)C(=O)N2C1 [PP1029]			C (A compound having a KD ratio of 0.1 or more and less than 3 is denoted as C)	B (a compound having 3 or more and less than 10 is denoted as B)		
8	CCO[C@@H]1C[C@H]2C(=O)NC3(CCC3)C(=O)N(C)[C@@H](C3CCCC3)C(=O)N(C)C(C(C)C)CC(=O)N(C)[C@@H](CC)C(=O)N[C@@H]([C@@H](C)CC)C(=O)N(C)CC(=O)N(C)[C@H]3C/C=C\CCN(C3=O)[C@@H](Cc3ccc(C(F)(F)F)cc3)C(=O)N(C)CC(=O)N[C@@H](CCc3cc(F)c(C(F)(F)F)c(F)c3)C(=O)N2C1 (stereo partly drawn) [PP1590]					A (a compound having 10 or more and less than 20 is denoted as A)	B (a compound having 3 or more and less than 10 is denoted as B)
19.7	CC[C@H](C)[C@@H]1NC(=O)[C@H](C2CCC2)N(C)C(=O)C[C@@H](C(=O)N(C)CC)N(C)C(=O)[C@H](C2CCCC2)N(C)C(=O)C2(CC(C)(C)C2)NC(=O)[C@@H]2C[C@H](C)CN2C(=O)[C@H](CCc2ccc(C(F)(F)F)c(OC)c2)NC(=O)CN(C)C(=O)[C@H](Cc2ccc(C(F)(F)F)cc2)N2CC/C=C\C[C@@H](C2=O)N(C)C(=O)CN(C)C1=O [PP2009]	A (a compound having 10 or more and less than 20 is denoted as A)	A (a compound having 10 or more and less than 20 is denoted as A)				
19.6	CCO[C@@H]1C[C@H]2C(=O)NC3(CC(C)(C)C3)C(=O)N(C)[C@@H](C(CC)CC)C(=O)N(C)[C@H](C(=O)N3CCCC3)CC(=O)N(C)[C@@H](CC)C(=O)N[C@@H]([C@@H](C)CC)C(=O)N(C)CC(=O)N(C)[C@H]3C/C=C\CCN(C3=O)[C@@H](Cc3ccc(C)cc3)C(=O)N(C)CC(=O)N[C@@H](CCc3ccc(C(F)(F)F)c(OC)c3)C(=O)N2C1 [PP2171]	A (a compound having 10 or more and less than 20 is denoted as A)	A (a compound having 10 or more and less than 20 is denoted as A)				
311	CC[C@H](C)[C@@H]1NC(=O)[C@H](CC(C)C)N(C)C(=O)C[C@@H](C(=O)N(C)C)N(C)C(=O)[C@H](C2CCCC2)N(C)C(=O)C2(CCCC2)NC(=O)[C@@H]2CCCN2C(=O)[C@H](CCc2cc(F)c(C(F)(F)F)c(F)c2)NC(=O)CN(C)C(=O)[C@H](Cc2ccc(C(F)(F)F)cc2)N2CCCCC[C@@H](C2=O)N(C)C(=O)CN(CC)C1=O [PP0514]	B (a compound having 3 or more and less than 10 is denoted as B)	B (a compound having 3 or more and less than 10 is denoted as B)				
633	CC[C@H](C)[C@@H]1NC(=O)[C@H](CC(C)C)N(C)C(=O)C[C@@H](C(=O)N2CCOCC2)N(C)C(=O)[C@H](C2CCCC2)N(C)C(=O)C2(CCCC2)NC(=O)[C@H](C)N(CC)C(=O)[C@H](CCc2cc(F)c(C(F)(F)F)c(F)c2)NC(=O)CN(C)C(=O)[C@H](Cc2ccc(C(F)(F)F)cc2)N2CCCCC[C@@H](C2=O)N(C)C(=O)CN(C)C1=O [PP0515]	B (a compound having 3 or more and less than 10 is denoted as B)	B (a compound having 3 or more and less than 10 is denoted as B)				
29.4	CC[C@H](C)[C@@H]1NC(=O)[C@H](CC(C)C)N(C)C(=O)C[C@@H](C(=O)N(C)C)N(C)C(=O)[C@H](C2CCCC2)N(C)C(=O)C2(CCC2)NC(=O)[C@@H]2CCCN2C(=O)[C@H](CCc2cc(F)c(C(F)(F)F)c(F)c2)NC(=O)CN(C)C(=O)[C@H](Cc2ccc(C(F)(F)F)cc2)N2CCCCC[C@@H](C2=O)N(C)C(=O)CN(C)C1=O [PP0512]	B (a compound having 3 or more and less than 10 is denoted as B)	B (a compound having 3 or more and less than 10 is denoted as B)				
32.2	CCCO[C@@H]1C[C@H]2C(=O)NC3(CC(C)(C)C3)C(=O)N(C)[C@@H](C(CC)CC)C(=O)N(C)[C@H](C(=O)N(C)C)CC(=O)N(C)[C@H]3CCCc4ccc(cc4)C[C@@H](C(=O)N(C)CC(=O)N[C@@H](CCc4ccc(C(F)(F)F)c(OC)c4)C(=O)N2C1)N1CC/C=C\C[C@@H](C1=O)N(C)C(=O)CN(C)C(=O)[C@H]([C@@H](C)CC)NC3=O [PP3063]			B (a compound having 3 or more and less than 10 is denoted as B)	B (a compound having 3 or more and less than 10 is denoted as B)		
110	CCO[C@@H]1C[C@H]2C(=O)NC3(CCC3)C(=O)N(C)[C@@H](C3CCCC3)C(=O)N(C)[C@H](C(=O)N3CCOCC3)CC(=O)N(C)[C@@H](CC(C)C)C(=O)N[C@@H]([C@@H](C)CC)C(=O)N(C)CC(=O)N(C)[C@H]3CCCCCN(C3=O)[C@@H](Cc3ccc(F)c(Cl)c3)C(=O)N(C)CC(=O)N[C@@H](CCc3cc(F)c(C(F)(F)F)c(F)c3)C(=O)N2C1 [PP0919]			B (a compound having 3 or more and less than 10 is denoted as B)	B (a compound having 3 or more and less than 10 is denoted as B)		

Structure (SMILES)	IC50 [2] [nM]	NRAS /KRAS [1, 3]	HRAS /KRAS (HRAS wild-type protein; [4])	NRAS /KRAS [1, 5]	HRAS /KRAS (HRAS wild-type protein; [6])	NRAS /KRAS ([1]; ratio of KD value for GDP-bound NRAS wild-type protein to KD value for KRAS (SPR))	HRAS /KRAS (HRAS wild-type protein; ratio of KD value for HRAS wild-type protein to KD value for KRAS (SPR))
CCC[C@H]1C(=O)N[C@@H]([C@@H](C)CC)C(=O)N(C2CC2)CC(=O)N(C)[C@H]2C/C=C\CCN(C2=O)[C@@H](Cc2ccc(C)cc2)C(=O)N(C)CC(=O)N[C@@H](CCc2cc(C)c(C(F)F)c(Cl)c2)C(=O)N2C[C@H](OCC)C[C@H]2C(=O)NC2(CC(C)(C)C2)C(=O)N(C)[C@@H](C2CCCC2)C(=O)N(C)[C@H](C(=O)N(C)C)CC(=O)N1C [PP2875]	121			A (a compound having 10 or more and less than 20 is denoted as A)	A (a compound having 10 or more and less than 20 is denoted as A)		
